From patent US6541505B1, “Substituted (aminoiminomethyl or aminomethyl) benzoheteroaryl compounds” (Aventis Pharmaceuticals Inc., priority 1998, dated 2003)
Structures can show the parent of a compound that is named as a salt.

melting point [°C]	Structure (SMILES)
52 to 54	N=C(N)c1c[nH]c2ccc(CCNC(=O)c3ccc(-c4cnc[nH]4)cc3)cc12 [Example 1h, N-(2-[3-Carbamimidoylindol-5-yl]ethyl)-4-(3H-imidazol-4-yl)benzamide]
55 to 58	N=C(N)c1c[nH]c2ccc(CCNC(=O)c3ccc(-c4cccnc4)cc3)cc12 [Example 1a, N-(2-[3-Carbamimidoyl-5-indolyl]ethyl)-4-pyrid-3-ylbenzamide]
164 to 167	COc1ccc(-c2ccc(C(=O)NCCc3ccc4[nH]cc(C(=N)N)c4c3)cc2)cn1 [Example 1p, N-(2-[3-Carbamimidoylindol-5-yl]ethyl)-4-(6-methoxypyrid-3-yl)benzamide]
152 to 156	N=C(N)c1c[nH]c2ccc(CCNC(=O)c3ccc(-c4ccc(=O)[nH]c4)cc3)cc12 [Example 1v, N-(2-[3-carbamimidoyl-1H-indol-5-yl]ethyl)-4-(6-oxo-1,6-dihydro-pyrid-3-yl)benzamide]
196 to 199	N=C(N)c1c[nH]c2ccc(CCNC(=O)c3ccc(-n4cncn4)nc3)cc12 [Example 1aa, N-(2-[3-Carbamimidoylindol-5-yl]ethyl)-6-(1,2,4)triazol-1-ylnicotinamide]
94 to 97	CN(C)CCn1cc(-c2ccc(C(=O)NCCc3ccc4[nH]cc(C(=N)N)c4c3)cc2)ccc1=O [Example 1ap, N-(2-[3-Carbamimidoylindol-5-yl]ethyl)-4-(1-[2-dimethylaminoethyl]-6-oxo-1,6-dihydropyridin-3-yl)benzamide]
237 to 238	COc1ccc(-c2ccc(C(=O)NCCc3ccc4c(c3)c(C(=N)N)cn4C)cc2)cn1 [Example 1ad, N-(2-[3-Carbamimidoyl-1-methylindol-5-yl]ethyl)-4-(6-methoxypyrid-3-yl)benzamide]
222 to 224	N=C(N)c1c[nH]c2ccc(CCNC(=O)c3ccc(-c4ncns4)cc3)cc12 [Example 1i, N-(2-[3-Carbamimidoylindol-5-yl]ethyl)-4-(1,2,4)thiadiazol-5-ylbenzamide]
198 to 200	N=C(N)c1c[nH]c2ccc(CCNC(=O)c3ccc(-c4ccccn4)s3)cc12 [Example 1c, 5-(Pyrid-2-yl)-thiophene-2-carboxylic acid 2-(3-carbamimidoyl-5-indolyl)ethyl amide]
102 to 105	N=C(N)c1c[nH]c2ccc(CCNC(=O)c3ccc(NCCO)nc3)cc12 [Example 1z, N-(2-[3-Carbamimidoylindol-5-yl]ethyl)-6-(2-hydroxyethylamino)nicotinamide]

The remaining lines, values behind:

Structure (SMILES)	melting point [°C]
N=C(N)c1c[nH]c2ccc(CCNC(=O)c3ccc(-c4ccncc4)cc3)cc12 [Example 1aaaaaaa, N-(2-[3-Carbamimidoylindol-5-yl]ethyl)-4-pyrid-4-ylbenzamide]	113 to 116
CCN(CC)CCCCNc1nccc(-c2ccc(C(=O)NCCc3ccc4[nH]cc(C(=N)N)c4c3)cc2)n1 [Example 1aaap, N-[2-(3-Carbamimidoyl-1H-indol-5-yl)ethyl]-4-[2-(4-diethylaminobutylamino)pyrimidin-4-yl]benzamide]	73 to 76
CN(C)CCOc1ccc(-c2ccc(C(=O)NCCc3ccc4[nH]cc(C(=N)N)c4c3)cc2)cn1 [Example 1aaaaaz, N-(2-[3-Carbamimidoylindol-5-yl]ethyl)-4-(6-[2-dimethylaminoethoxy]pyridin-3-yl)benzamide]	57 to 59
CN(C)CCCOc1cccc(-c2ccc(C(=O)NCCc3ccc4[nH]cc(C(=N)N)c4c3)cc2)c1 [Example 1aaaaw, 3′-(3-Dimethylaminopropoxy)biphenyl-4-carboxylic acid [2-(3-carbamimidoyl-1H-indol-5-yl)ethyl]amide]	84 to 86
CC(Oc1nccc(-c2ccc(C(=O)NCCc3ccc4[nH]cc(C(=N)N)c4c3)cc2)n1)C(N)=O (stereo not shown) [Example 1aaaam, N-[2-(3-Carbamimidoyl-1H-indol-5-yl)ethyl]-4-[2-(1-carbamoylethoxy)pyrimidin-4-yl]benzamide]	159 to 161
N=C(N)c1c[nH]c2ccc(CCNC(=O)c3ccc(-c4ccnc(NCCCCCCN5CCCCC5)n4)cc3)cc12 [Example 1aaam, N-[2-(3-Carbamimidoyl-1H-indol-5-yl)ethyl]-4-[2-(6-piperidin-1-ylhexylamino)pyrimidin-4-yl]benzamide]	110 to 113
CN1CCN(c2nccc(-c3ccc(C(=O)NCCc4ccc5[nH]cc(C(=N)N)c5c4)cc3)n2)CC1 (as salt: salt) [Example 1aaae, N-[2-(3-Carbamimidoyl-1H-indol-5-yl)ethyl]-4-[2-(4-methylpiperazin-1-yl)pyrimidin-4-yl]benzamide]	111 to 113
N=C(N)c1c[nH]c2ccc(CCNC(=O)c3ccc(-c4ccnc(NCCCCCCN5CCOCC5)n4)cc3)cc12 [Example 1aaaq, N-[2-(3-Carbamimidoyl-1H-indol-5-yl)ethyl]-4-[2-(6-morpholin-4-ylhexylamino)pyrimidin-4-yl]benzamide]	129 to 130
N=C(N)c1c[nH]c2ccc(CCNC(=O)c3ccc(-c4ccnc(OC5CCCNC5=O)n4)cc3)cc12 (stereo not shown) [Example 1aaaap, N-[2-(3-Carbamimidoyl-1H-indol-5-yl)ethyl]-4-[2-(2-oxopiperidin-3-yloxy)pyrimidin-4-yl]benzamide]	145 to 147
COCCOc1nccc(-c2ccc(C(=O)NCCc3ccc4[nH]cc(C(=N)N)c4c3)cc2)n1 (as salt: salt) [Example 1aaaal, N-[2-(3-Carbamimidoyl-1H-indol-5-yl)-ethyl]-4-[2-(2-methoxyethoxy)-pyrimidin-4-yl]benzamide]	122 to 124
CN(C)CCCOc1ccc(-c2ccc(C(=O)NCCc3ccc4[nH]cc(C(=N)N)c4c3)cc2)cn1 (as salt: salt) [Example 1aaaaab, N-[2-(3-Carbamimidoyl-1H-indol-5-yl)ethyl]-4-[6-(3-dimethylaminopropoxy)pyridin-3-yl]benzamide]	84 to 86
N=C(N)c1c[nH]c2ccc(CCNC(=O)c3ccc(-c4ccnc(CNCCCC(=O)O)n4)cc3)cc12 (as salt: salt) [Example 1aaaf, 4-[(4-{4-[2-(3-Carbamimidoyl-1H-indol-5-yl)ethylcarbamoyl]phenyl}pyrimidin-2-yl)methylamino]butyric acid]	100 to 104
N=C(N)c1c[nH]c2ccc(CCNC(=O)c3ccc(-c4ccnc(NCCCCN5CCCCC5)n4)cc3)cc12 [Example 1aaan, N-[2-(3-Carbamimidoyl-1H-indol-5-yl)ethyl]-4-[2-(4-piperidin-1-ylbutylamino)pyrimidin-4-yl]benzamide]	94 to 96
N=C(N)c1c[nH]c2ccc(CCNC(=O)c3ccc(-c4ccnc(NCCCCCCN5CCCC5)n4)cc3)cc12 [Example 1aaal, N-[2-(3-Carbamimidoyl-1H-indol-5-yl)ethyl]-4-[2-(6-pyrrolidin-1-yl-hexylamino)pyrimidin-4-yl]benzamide]	159 to 161
N=C(N)c1c[nH]c2ccc(CCNC(=O)c3ccc(-c4ccnc(NC5CC6CCC5C6)n4)cc3)cc12 (stereo not shown) (as salt: salt) [Example 1aaat, 4-[2-(Bicyclo[2.2.1]hept-2-ylamino)pyrimidin-4-yl]-N-[2-(3-carbamimidoyl-1H-indol-5-yl)ethyl]benzamide]	152 to 155
N=C(N)c1c[nH]c2ccc(CCNC(=O)c3ccc(-c4ccnc(N5CCCC5CO)n4)cc3)cc12 (stereo not shown) (as salt: salt) [Example 1aaaj, N-[2-(3-Carbamimidoyl-1H-indol-5-yl)-ethyl]-4-[2-(2-hydroxymethylpyrrolidin-1-yl)-pyrimidin-4-yl]benzamide]	117 to 120
CN(C)CCCCNc1nccc(-c2ccc(C(=O)NCCc3ccc4[nH]cc(C(=N)N)c4c3)cc2)n1 (as salt: salt) [Example 1aaas, N-[2-(3-Carbamimidoyl-1H-indol-5-yl)ethyl]-4-[2-(4-dimethylaminobutylamino)pyrimidin-4-yl]benzamide]	156 to 159
CN(C)CCCCCCNc1nccc(-c2ccc(C(=O)NCCc3ccc4[nH]cc(C(=N)N)c4c3)cc2)n1 (as salt: salt) [Example 1aaar, N-[2-(3-Carbamimidoyl-1H-indol-5-yl)ethyl]-4-[2-(6-dimethylaminohexylamino)pyrimidin-4-yl]benzamide]	89 to 91
CN(CC(N)=O)c1nccc(-c2ccc(C(=O)NCCc3ccc4[nH]cc(C(=N)N)c4c3)cc2)n1 (as salt: salt) [Example 1aaak, N-[2-(3-Carbamimidoyl-1H-indol-5-yl)-ethyl]-4-[2-(carbamoylmethyl-N-methylamino)-pyrimidin-4-yl]benzamide]	96 to 98
CN(CCO)c1nccc(-c2ccc(C(=O)NCCc3ccc4[nH]cc(C(=N)N)c4c3)cc2)n1 (as salt: salt) [Example 1aaav, N-[2-(3-Carbamimidoyl-1H-indol-5-yl)ethyl]-4-{2-[(2-hydroxy-ethyl)-N-methylamino]pyrimidin-4-yl}benzamide]	97 to 100
CN(C)CCCOc1ccccc1-c1ccc(C(=O)NCCc2ccc3[nH]cc(C(=N)N)c3c2)cc1 [Example 1aaaav, 2′-(3-Dimethylaminopropoxy)biphenyl-4-carboxylic acid [2-(3-carbamimidoyl-1H-indol-5-yl)ethyl]amide]	76 to 78
CN(C)CCNC(=O)Cn1cc(-c2ccc(C(=O)NCCc3ccc4[nH]cc(C(=N)N)c4c3)cc2)ccc1=O [Example 1aaaaad, N-[2-(3-Carbamimidoyl-1H-indol-5-yl)-ethyl]-4-{1-[(2-dimethylaminoethylcarbamoyl)methyl]-6-oxo-1,6-dihydropyridin-3-yl}benzamide]	71 to 75
N=C(N)c1c[nH]c2ccc(CCNC(=O)c3ccc(-c4ccnc(OCC(F)(F)F)n4)cc3)cc12 [Example 1aaag, N-[2-(3-Carbamimidoyl-1H-indol-5-yl)ethyl]-4-[2-(2,2,2-trifluoroethoxy)pyrimidin-4-yl]benzamide]	194 to 195
N=C(N)c1c[nH]c2ccc(CCNC(=O)c3ccc(-c4ccnc(N5CCCC5)n4)cc3)cc12 [Example 1aaah, N-[2-(3-Carbamimidoyl-1H-indol-5-yl)-ethyl]-4-(2-pyrrolidin-1-ylpyrimidin-4-yl)benzamide]	134 to 136
